The values below come from PubChem BioAssay (NCI).

Structures are written as SMILES.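 Following 48 hours of exposure in 96-well plates, responses at five concentrations were used to interpolate endpoints linearly. GI50 marks 50% less growth. Definition used: TGI = concentration required for complete inhibition of growth.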

Test in all cases: inhibition of tumour cell growth, NCI panel, 48 h
In assay [1] the test system is HOP-92 NSCLC.
The test system of assay [2] is RPMI-8226 leukemia.
In assay [3] the test system is CCRF-CEM leukemia.
The subject of assay [4] is LOX IMVI melanoma.
Assay [5] deals with A498 renal.
The test system of assay [6] is IGROV1 ovarian.
For assay [7], the system named is EKVX NSCLC.
In assay [8] the test system is U251 CNS.
Assay [9] deals with COLO 205 colon.
Assay [10] concerns HS 578T breast.

`O=C1CCC(O)=C1O`: the TGI in assay [1], in [2], in [3], in assay [4], in assay [5] and in assay [6] was over 100 µM throughout. For the same molecule, the TGI in assay [7], in assay [8] and in assay [9] was over 100 µM throughout.
Consider `Cc1cc(=O)oc2cc(O)c(CN(C)CC(=O)O)cc12`, for which the TGI in assay [1], in assay [2], in assay [4], in [5], in assay [6] and in assay [10] was over 100 µM throughout. Further, the TGI in assay [7], in [8] and in assay [9] was over 100 µM throughout.
In the case of `CCOC(=O)COS(=O)(=O)C(F)(F)F`, the TGI is over 100 µM in assay [1]; 50.5 µM in assay [2]; over 100 µM in assay [3]; 34 µM in assay [4]; over 100 µM in [5]; over 100 µM in assay [6]. Moreover, the TGI in assay [7], in assay [8] and in assay [9] was over 100 µM each time.
Turning to `COc1cc(Br)c(C=Nc2cccc3ccc(OS(=O)(=O)c4cccc([N+](=O)[O-])c4)cc23)cc1OC`, the TGI in assay [1] is 35.3 µM; in assay [2], over 100 µM; in assay [3], over 100 µM; in assay [4], over 100 µM; in assay [5], over 100 µM; in assay [6], over 100 µM. Also, the TGI in [7], in assay [8] and in assay [9] was over 100 µM each time.
For the molecule `COC(=O)c1nc(N)[nH]c(=O)c1CCCCCc1c(C(=O)OC)nc(N)[nH]c1=O`, the TGI in [1], in assay [2], in assay [3], in [4], in assay [5] and in assay [6] was over 50 µM each time. The TGI in assay [7], in [8] and in [9] was over 50 µM in each case.
As to `O=C1Nc2cccc3cc(NCC(O)CCl)cc1c23` (stereo not drawn), the TGI in [1], in [2], in [3], in [4], in assay [6] and in assay [10] was over 100 µM in each case. In addition, the TGI in assay [7], in assay [8] and in [9] was over 100 µM in each case.
For the molecule `COC(=O)c1c(-c2ccccc2)sc(-c2cccc3ccccc23)c1C(=O)OC`, the TGI in assay [1], in assay [2], in assay [3], in assay [4], in assay [5] and in [6] was over 100 µM throughout. The TGI in assay [7], in assay [8] and in assay [9] was over 100 µM each time.
In the case of `O=[N+]([O-])c1ccc2c(c1)[O][Sn][O]2`, the GI50 was 45.3 µg/mL in [1]; 17.8 µg/mL in assay [2]; 17.6 µg/mL in [3]; 66.5 µg/mL in assay [4]; over 150 µg/mL in assay [5]; 115 µg/mL in assay [6]. Also, the GI50 in [7] is over 150 µg/mL; in assay [8] it was over 150 µg/mL; in assay [9], 62.5 µg/mL. The TGI in assay [1] was 88.3 µg/mL; in assay [2] it was over 150 µg/mL; in assay [3], over 150 µg/mL; in [4], over 150 µg/mL; in [5], over 150 µg/mL; in [6] it was over 150 µg/mL. For the same molecule, the TGI in assay [7], in assay [8] and in assay [9] was over 150 µg/mL in each case.
Consider `COC(=O)C1=C(C(=O)OC)SC(=C(Cl)C(=S)Sc2ccccc2N)S1`, for which the GI50 in assay [1] was 46.4 µM; in [2], 51.8 µM; in [4], 17.8 µM; in assay [10] it was 19 µM; in assay [8] it was 18.5 µM; in assay [9], 34.8 µM. The TGI was over 100 µM in [1]; over 100 µM in assay [2]; 40.3 µM in [4]; 66.2 µM in assay [10]; 35.4 µM in assay [8]; over 100 µM in assay [9].
For `C=C1C(=O)OC2/C=C(\C=O)CC/C=C(\C)C(O)C[C@@H]12` (stereo partly drawn), the TGI in [1] is 17.2 µM; in [2] it was 8.69 µM; in assay [3], over 26.5 µM; in assay [4], 18.5 µM; in assay [5] it was 22.1 µM; in assay [6], 32.3 µM. Moreover, the TGI in [7] was determined as 29.1 µM; in assay [8], 35.4 µM; in assay [9], 15.3 µM.
Turning to `C[C-](O)O.O/C(=C\[C-](O)c1ccccc1)c1ccccc1.O/C(=C\[C-](O)c1ccccc1)c1ccccc1.[Nd+3]` (stereo not drawn), the GI50 is 12.9 µM in [1]; 6.43 µM in assay [2]; 2.21 µM in assay [3]; 4.28 µM in [4]; 11.7 µM in [5]; 14.1 µM in [6]. Besides, the results for the GI50 in assay [7], in assay [8] and in assay [9] were 8.09 µM, 4.46 µM and 14.7 µM, respectively. For the same molecule, the TGI is 35.3 µM in assay [1]; 33.5 µM in [2]; 15.3 µM in assay [3]; 17.7 µM in assay [4]; 43.1 µM in [5]; over 100 µM in assay [6]. Besides, the TGI in [7] is 55 µM; in assay [8], 22.1 µM; in assay [9], 36.3 µM.
`O=C(OC[C@H]1O[C@@H](OC(=O)c2cc(O)c(O)c(O)c2)[C@H](OC(=O)c2cc(O)c(O)c(O)c2)[C@@H](OC(=O)c2cc(O)c(O)c(O)c2)[C@@H]1OC(=O)c1cc(O)c(O)c(O)c1)c1cc(O)c(O)c(O)c1`: the TGI in [1] was 37.4 µM; in [2], over 100 µM; in assay [3], over 100 µM; in assay [4] it was 4.41 µM; in [5], 37.5 µM; in assay [6], over 100 µM. The figures for the TGI in assay [7], in assay [8] and in assay [9] were 70.9 µM, 54.3 µM and 46.3 µM, respectively.
As for `C[N+]1(C)C/C(=C\c2ccncc2)C(=O)/C(=C/c2ccncc2)C1`, the TGI in assay [1], in [2], in [3], in assay [4], in [5] and in assay [6] was over 100 µM in each case. For the same molecule, the TGI in assay [7], in [8] and in assay [9] was over 100 µM in each case.
